Assay results taken from patent US20110217715A1, “GENE EXPRESSION IN DUCHENNE MUSCULAR DYSTROPHY” (CHILDREN'S HOSPITAL MEDICAL CENTER, priority 2008, published 2011).

System: mRNA expression in peripheral blood of individuals with DMD
Experiment: Whole-blood gene expression microarray: DMD administered deflazacort vs DMD administered prednisone
Assay type: in vivo, human
Experimental: Fifteen ml of blood was collected from each individual into 6 PAXgene® Vacutainer® tubes (PreAnalytiX, Germany) by antecubital fossa venipuncture. PAXgene® tubes contain a proprietary reagent that immediately stabilizes RNA, thus reducing RNA degradation and minimizing gene expression changes following phlebotomy. The tubes were then inverted 20 times, then remained undisturbed for 2 h at room temperature (about 19° C. to about 22° C.), and then stored at -70° C. until processed. Total RNA was isolated using the Paxgene® blood RNA kit (PreAnalytiX, Germany) according to the manufacturers instructions. The RNA isolated is from all cells in whole blood. Typical yields of total RNA isolated from about 7.5 ml of human whole blood were between 10 μg RNA and 40 μg RNA. RNA quality and purity was analyzed by spectrophotometry using the Nanodrop ND-1000, and RNA integrity was analyzed using the Agilent 2100 Bioanalyzer. […] Sample labeling, hybridization to chips, and image scanning were performed using standard Affymetrix protocols. For each whole blood sample from control individuals and individuals with DMD, total RNA was labeled using the One-Cycle Target Labeling protocol and hybridized to the arrays. […] Double-stranded cDNA synthesis, biotin-labeled cRNA synthesis, and cRNA fragmentation were performed according to the Affymetrix GeneChip Eukaryotic Expression Analysis protocol. The labeled, fragmented cRNA (15 μg) was hybridized at 45° C. overnight. After hybridization, the array was washed and stained. The arrays were scanned with an argon-ion laser at λ=570 nm, with a resolution of 3 μm/pixel (Affymetrix, Inc.). After scanning the array, the raw probe level values for each probe were saved in Affymetrix.cel files. […] Statistical analyses, including t-test analyses, unsupervised hierarchical clustering, and principal component analyses were conducted using Genespring 7.2 software ([…]® 7, Silicon Genetics, Redwood City Calif.). […] Corrections for multiple comparisons used a Benjamini-Hochberg False Discovery Rate (FDR) of 0.05, disclosed in Tang et al., J Cereb Blood Flow Metab 26 (2006) 1089, which is expressly incorporated by reference herein in its entirety. […] Sample processing and array hybridization, probe-level data analysis, and statistical analysis were identical to Example 1.

CC(=O)OCC(=O)[C@@]12N=C(C)O[C@@H]1C[C@H]1[C@@H]3CCC4=CC(=O)C=C[C@]4(C)[C@H]3[C@@H](O)C[C@@]12C [deflazacort]
p-value (gene PECAM1, Genbank AA702701, Nucleic Acid No. 2155): 0.00909
p-value (gene PECAM1, Genbank M37780, Nucleic Acid No. 2154): 0.00421
p-value (gene PF4V1, Genbank NM_002620, Nucleic Acid No. 2156): 0.0164
p-value (gene PFKFB3, Genbank NM_004566, Nucleic Acid No. 2157): 0.0338
p-value (gene PHACTR2, Genbank AA551142, Nucleic Acid No. 2158): 0.039
p-value (gene PHACTR2, Genbank NM_014721, Nucleic Acid No. 2159): 0.0451
p-value (gene PHCA, Genbank R12678, Nucleic Acid No. 2160): 0.0221
p-value (gene PHF21A, Genbank BC015714, Nucleic Acid No. 2161): 0.0231
p-value (gene PHGDHL1, Genbank AF339764, Nucleic Acid No. 2162): 0.0444
p-value (gene PIAS1, Genbank AI732802, Nucleic Acid No. 2163): 0.0349
p-value (gene PICALM, Genbank AL135735, Nucleic Acid No. 2164): 0.0165
p-value (gene PICALM, Genbank AV722190, Nucleic Acid No. 762): 0.0363
p-value (gene PLEK, Genbank NM_002664, Nucleic Acid No. 2165): 0.000252
p-value (gene PLEKHA2, Genbank BF347859, Nucleic Acid No. 886): 0.0183
p-value (gene PLEKHM1, Genbank AB002354, Nucleic Acid No. 2166): 0.0134
p-value (gene PLSCR1, Genbank AI825926, Nucleic Acid No. 2167): 0.0487
p-value (gene PLXNB2, Genbank BC004542, Nucleic Acid No. 2168): 0.0177
p-value (gene PPGB, Genbank NM_000308, Nucleic Acid No. 2170): 0.0193
p-value (gene PPIG, Genbank AW970944, Nucleic Acid No. 2171): 0.011
p-value (gene PPM1F, Genbank BC013798, Nucleic Acid No. 2172): 0.0208
p-value (gene PPP3CA, Genbank AA532718, Nucleic Acid No. 2173): 0.0165
p-value (gene PRKACA, Genbank NM_002730, Nucleic Acid No. 2174): 0.00184
p-value (gene PRKAR1A, Genbank AI682905, Nucleic Acid No. 2175): 0.0262
p-value (gene PRKAR2B, Genbank NM_002736, Nucleic Acid No. 1688): 0.0441
p-value (gene PRKCD, Genbank NM_006254, Nucleic Acid No. 2176): 0.0077
p-value (gene PROK2, Genbank AF182069, Nucleic Acid No. 2177): 0.0338
p-value (gene PSENEN, Genbank NM_018468, Nucleic Acid No. 2178): 0.0201
p-value (gene PTGS1, Genbank NM_000962, Nucleic Acid No. 329 (first entry)): 0.0419
p-value (gene PTGS1, Genbank NM_000962, Nucleic Acid No. 329 (second entry)): 0.0226
p-value (gene PTGS1, Genbank S36219, Nucleic Acid No. 1667): 0.0474
p-value (gene PTGS2, Genbank AY151286, Nucleic Acid No. 2179): 0.0187
p-value (gene PTPN12, Genbank AL079909, Nucleic Acid No. 2180): 0.00163
p-value (gene PTPRE, Genbank AA775177, Nucleic Acid No. 2181): 0.0161
p-value (gene RAB8A, Genbank BC002977, Nucleic Acid No. 2185): 0.00561
p-value (gene RAB11FIP1, Genbank NM_025151, Nucleic Acid No. 2182): 0.0397
p-value (gene RAB11FIP4, Genbank BG248313, Nucleic Acid No. 465): 0.047
p-value (gene RAB18, Genbank AU145607, Nucleic Acid No. 2183): 0.0414
p-value (gene RAB31, Genbank NM_006868, Nucleic Acid No. 2184): 0.0378
p-value (gene RAC1, Genbank AJ012502, Nucleic Acid No. 551): 0.0328
p-value (gene RAI17, Genbank AF070622, Nucleic Acid No. 1313): 0.0318
p-value (gene RAP1A, Genbank AW793677, Nucleic Acid No. 2186): 0.0194
p-value (gene RAP80, Genbank AF113675, Nucleic Acid No. 2187): 0.00717
p-value (gene RARA, Genbank AJ417079, Nucleic Acid No. 2188): 0.00262
p-value (gene RASA1, Genbank AK021812, Nucleic Acid No. 2189): 0.0372
p-value (gene RBBP5, Genbank NM_005057, Nucleic Acid No. 2190): 0.0383
p-value (gene REL, Genbank NM_002908, Nucleic Acid No. 2191): 0.0166
p-value (gene RERE, Genbank H71242, Nucleic Acid No. 2192): 0.0354
p-value (gene RFWD2, Genbank BF725688, Nucleic Acid No. 2193): 0.0334
p-value (gene RFX2, Genbank AK024288, Nucleic Acid No. 2194): 0.0472
p-value (gene RG9MTD3, Genbank AI214944, Nucleic Acid No. 2195): 0.0449
p-value (gene RHOQ, Genbank BC033251, Nucleic Acid No. 2196): 0.0402
p-value (gene RIN3, Genbank AA625133, Nucleic Acid No. 2197): 0.0322
p-value (gene RIT1, Genbank AL037450, Nucleic Acid No. 1675): 0.0214
p-value (gene RNF24, Genbank BC000213, Nucleic Acid No. 2198): 0.0415
p-value (gene ROCK1, Genbank AL050032, Nucleic Acid No. 2199): 0.0356
p-value (gene RSU1, Genbank AW515913, Nucleic Acid No. 2200): 0.0152
p-value (gene RUFY1, Genbank NM_025158, Nucleic Acid No. 2201): 0.0258
p-value (gene RUFY2, Genbank NM_017987, Nucleic Acid No. 2202): 0.00853
p-value (gene SEC14L1, Genbank NM_003003, Nucleic Acid No. 2203): 0.0303
p-value (gene SEC23B, Genbank BC005032, Nucleic Acid No. 2204): 0.0301
p-value (gene SECTM1, Genbank BF939675, Nucleic Acid No. 2205): 0.0499
p-value (gene SERPINA1, Genbank AF119873, Nucleic Acid No. 2207): 0.0459
p-value (gene SERPINA1, Genbank NM_000295, Nucleic Acid No. 2206): 0.022
p-value (gene SF3A2, Genbank L21990, Nucleic Acid No. 2208): 0.0469
p-value (gene SGK, Genbank NM_005627, Nucleic Acid No. 2209): 0.028
p-value (gene SH3BGRL2, Genbank AL035700, Nucleic Acid No. 1736): 0.0258
p-value (gene pp9099, Genbank NM_025201, Nucleic Acid No. 2169): 0.0311
number of genes significantly up-regulated (of the 508 genes, deflazacort compared to prednisone): 30 genes
